Assays:
[1] = system: DLD1 NRF2-GOF; test: drug sensitivity score (DSS) cytotoxicity (DSS score); higher = more toxic; extreme values may be limits of the assay; settings: 72 h; CellTox Green cytotoxicity
Method in brief: (§1)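 Isogenic DLD1 colorectal cancer cells differing in NRF2 status, one line edited by CRISPR, were cultured in DMEM with 10% FBS and treated in 384-well plates with library compounds at 5 concentrations spanning a 10,000-fold range. Plates were read after 72 h with CellTox Green on a Pherastar FS reader, and signals were normalised to vehicle wells and 100-μM positive-control wells. Cytotoxicity was summarised as TC50 and as a drug sensitivity score, a normalised area under the curve, both from logistic dose-response fits.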

[2] = system: DLD1 NRF2-WT; test: as above; settings: 72 h; CellTox Green cytotoxicity
Method in brief: as §1

[3] = system: DLD1 NRF2-GOF; test: drug sensitivity score (DSS) viability (DSS score); higher = more sensitive; extreme values may be limits of the assay; settings: 72 h; CellTiter-Glo viability
Method in brief: (§2)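 DLD1 colorectal cancer cells, an isogenic pair either NRF2 wild-type or carrying a CRISPR gain-of-function, were cultured in DMEM with 10% FBS and treated in 384-well plates with library compounds at 5 concentrations across a 10,000-fold range. CellTiter-Glo viability was read on a Pherastar FS reader after 72 h and normalised to vehicle wells and 100-μM positive-control wells. Four-parameter logistic dose-response fits were applied. EC50 and drug sensitivity score, a normalised area under the curve, were taken from these fits.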

[4] = system: DLD1 NRF2-GOF; test: TC50 cytotoxicity; higher = less toxic; settings: 72 h; CellTox Green cytotoxicity
Method in brief: as §1

[5] = system: DLD1 NRF2-WT; test: TC50 cytotoxicity; higher = less toxic; settings: 72 h; CellTox Green cytotoxicity
Method in brief: as §1

[6] = system: DLD1 NRF2-WT; test: drug sensitivity score (DSS) viability (DSS score); higher = more sensitive; extreme values may be limits of the assay; settings: 72 h; CellTiter-Glo viability
Method in brief: as §2

[7] = system: DLD1 NRF2-WT; settings: 72 h; CellTiter-Glo viability
Method in brief: as §2

Row | Compound | drug sensitivity score [1] | drug sensitivity score [2] | drug sensitivity score [3] | TC50 cytotoxicity [4] [µM] | TC50 cytotoxicity [5] [µM] | drug sensitivity score [6] | EC50 viability [7] [µM]
1 | CONC(=O)c1ccccc1Nc1cc(Nc2cc(C)nn2C(C)C)ncc1Cl | 0 | 0 | 1.6 | > 1 | > 1 |  | 
2 | Cc1c(N)nc([C@H](CC(N)=O)NC[C@H](N)C(N)=O)nc1C(=O)N[C@H](C(=O)N[C@H](C)[C@@H](O)[C@H](C)C(=O)N[C@H](C(=O)NCCc1nc(-c2nc(C(=O)NCCC[S+](C)C)cs2)cs1)[C@@H](C)O)[C@@H](O[C@@H]1O[C@@H](CO)[C@@H](O)[C@H](O)[C@@H]1O[C@H]1O[C@H](CO)[C@@H](O)[C@H](OC(N)=O)[C@@H]1O)c1c[nH]cn1 [Bleomycin] | 0 | 0 | 2.6 | > 10 | > 10 | 0.4 | > 10
3 | CC[C@H](C)C(=O)O[C@H]1C[C@@H](C)C=C2C=C[C@H](C)[C@H](CC[C@@H]3C[C@@H](O)CC(=O)O3)[C@H]21 [Lovastatin] | 0 | 0 | 5.2 | > 10 | > 10 | 0 | > 10
4 | CCc1nc(C(N)=O)c(Nc2ccc(N3CCC(N4CCN(C)CC4)CC3)c(OC)c2)nc1NC1CCOCC1 [Gilteritinib] | 0 | 0 | 1.4 | > 1 | > 1 | 2.9 | 0.251
5 | CNC(=O)c1cc(COc2nnc(Nc3ccc(Cl)cc3)c3ccoc23)ccn1 [Telatinib] | 0 | 0 | 2.6 | > 10 | > 10 | 6.9 | 
6 | CC[C@H](CO)Nc1nc(NCc2ccccc2)c2ncn(C(C)C)c2n1 [Seliciclib] | 0 | 0 |  | > 10 | > 10 | 1.1 | 4.17
7 | C[C@]12C=CC(=O)C=C1CC[C@@H]1[C@@H]2[C@@H](O)C[C@@]2(C)[C@H]1CC[C@]2(O)C(=O)CO [Prednisolone] | 0 | 0 | 1 | > 10 | > 10 |  | 
8 | CN1CCC(CNc2ccc3ncc(-c4cccc(OC(F)(F)F)c4)n3n2)CC1 [SGI-1776] | 3.1 | 4.5 |  | 3.14 | 2.68 | 5 | 3.47
9 | C=CC(=O)Nc1cccc(Oc2nc(Nc3ccc(N4CCN(C)CC4)cc3)nc3ccsc23)c1 [Olmutinib] | 0 | 0 | 2.8 | > 1 | > 1 | 2.6 | 
10 | C[C@@H](Oc1cc(-n2cnc3ccc(CN4CCN(C)CC4)cc32)sc1C(N)=O)c1ccccc1C(F)(F)F | 8 | 2.4 |  | > 10 | > 10 | 33.6 | 0.0033
11 | CNCc1ccc(-c2[nH]c3cc(F)cc4c3c2CCNC4=O)cc1 [Rucaparib] | 0 | 0 | 2.7 | > 10 | > 10 | 0.8 | 
12 | Cc1cccc(CC(=O)N2CCc3c2ccc(-c2cn(C)c4ncnc(N)c24)c3F)n1 | 0 | 0 |  | > 2.5 | > 2.5 | 2.5 | 0.808
13 | CC(C)C[C@H](NC(=O)[C@H](Cc1ccccc1)NC(=O)c1cnccn1)B(O)O [Bortezomib] | 23.1 | 27.2 |  | 0.0117 | 0.0057 | 27.1 | 0.0058
14 | COc1cc2c(cc1OC(C)C)[C@H](c1ccc(Cl)cc1)N(c1ccc(N(C)C[C@H]3CC[C@H](N4CCN(C)C(=O)C4)CC3)cc1)C(=O)C2 [NVP-CGM097] | 0 | 0 |  | > 25 | > 25 | 3.4 | 2.38
15 | COc1c(C)cnc(Cn2cnc3c(Cl)nc(N)nc32)c1C [BIIB021] | 0 | 0 |  | > 10 | > 10 | 20.6 | 0.149
16 | CCC(C)n1ncn(-c2ccc(N3CCN(c4ccc(OCC5COC(Cn6cncn6)(c6ccc(Cl)cc6Cl)O5)cc4)CC3)cc2)c1=O (stereo unspecified) [Itraconazole] | 0 | 0 |  | > 5 | > 5 | 0.4 | > 5
17 | COc1cc(Nc2ncc(F)c(Nc3ccc4c(n3)NC(=O)C(C)(C)O4)n2)cc(OC)c1OC [Tamatinib] | 0 | 0 |  | > 10 | > 10 | 1 | > 10
18 | C=C1C[C@@H]2CC[C@@]34C[C@H]5O[C@H]6[C@@H](O3)[C@H]3O[C@H](CC[C@@H]3O[C@H]6[C@H]5O4)CC(=O)C[C@@H]3[C@@H](OC)[C@@H](C[C@H](O)CN)O[C@H]3C[C@H]3O[C@@H](CC[C@@H]1O2)C[C@@H](C)C3=C [Eribulin] | 4.4 | 3.3 |  | > 1 | > 1 | 22.6 | 0.0051
19 | CC(=O)OC[C@H]1O[C@@H]([S-])[C@H](OC(C)=O)[C@@H](OC(C)=O)[C@@H]1OC(C)=O.CCP(CC)CC.[Au+] [Auranofin] | 0 | 2.3 |  | > 2.5 | 0.818 | 5.5 | 0.622
20 | CC[C@H](C)C(=O)O[C@H]1C[C@H](O)C=C2C=C[C@H](C)[C@H](CC[C@@H](O)C[C@@H](O)CC(=O)O)[C@H]21 [Pravastatin] | 0 | 0 |  | > 10 | > 10 | 0 | > 10
21 | C[C@H]1C[C@@H]2[C@H]([C@@H](O)C[C@@]3(C)[C@H]2CC[C@]3(O)C(=O)CO)[C@@]2(C)C=CC(=O)C=C12 [Methylprednisolone] | 0 | 0 | 2.9 | > 10 | > 10 |  | 

Row | Compound | drug sensitivity score [1] | drug sensitivity score [2] | drug sensitivity score [3] | TC50 cytotoxicity [4] [µM] | TC50 cytotoxicity [5] [µM] | drug sensitivity score [6] | EC50 viability [7] [µM]
22 | O=C(Nc1ccc2[nH]nc(-c3ccncc3)c2c1)[C@@H]1CCN(CC(=O)N2CCN(c3ccc(-c4ncccn4)cc3)CC2)C1 | 0 | 0 |  | > 10 | > 10 | 6.6 | 0.688
23 | Cc1nc(C(=O)NCC(=O)O)c(O)c2ccc(Oc3ccccc3)cc12 [Roxadustat] | 0 | 0 |  | > 10 | > 10 | 2.5 | 1.69
24 | CCS(=O)(=O)Nc1ccc(Oc2ccc(F)cc2F)c(-c2cn(C)c(=O)c3[nH]ccc23)c1 [Mivebresib] | 0 | 0 |  | > 10 | > 10 | 14.7 | 0.102
25 | C=CC(=O)N1CC/C(=C\c2ccc(F)c([N+](=O)[O-])c2)C(=O)/C(=C/c2ccc(F)c([N+](=O)[O-])c2)C1 [VLX1570] | 2.7 | 21.9 |  | 5.34 | 0.0677 | 27.9 | 0.0504
26 | CC(C)(C)c1cc(NC(=O)Nc2ccc(Oc3ccnc4[nH]c(=O)cnc34)cc2F)n(-c2ccccc2)n1 | 0 | 1.1 |  | > 25 | > 25 | 9.8 | 3.11
27 | COc1cc2/c(=N/c3ccc(Br)cc3F)nc[nH]c2cc1OCC1CCN(C)CC1 [Vandetanib] | 0 | 0 | 2.3 | > 1 | > 1 | 6.9 | 
28 | O=C(Nc1cc(Oc2cc(F)c(NC(=O)C3(C(=O)Nc4ccc(F)cc4)CC3)cc2F)ccn1)C1CC1 [Altiratinib] | 0.2 | 0.6 |  | > 10 | > 10 | 5.1 | 3.43
29 | OC[C@H]1O[C@@H](n2cnc3c2N=CNC[C@H]3O)C[C@@H]1O [Pentostatin] |  |  | 1.6 |  |  | 2.5 | 1.86
30 | Cc1ccc(NC(=O)c2ccc(CN3CCN(C)CC3)cc2)cc1Nc1nccc(-c2cccnc2)n1 [Imatinib] | 0 | 0 |  | > 10 | > 10 | 1.2 | 4.5
31 | CCCCCCCCCCCCCCCCCCOP(=O)([O-])OC1CC[N+](C)(C)CC1 [Perifosine] | 0.6 | 0.9 |  | > 2.5 | > 2.5 | 0.3 | > 2.5
32 | Nc1ccccc1NC(=O)c1ccc(CNc2nccc(-c3cccnc3)n2)cc1 [Mocetinostat] | 0 | 1.6 |  | > 10 | > 10 | 4 | 3.29
33 | CO[C@H](C(=O)[C@@H](O)[C@@H](C)O)[C@@H]1Cc2cc3cc(O[C@H]4C[C@@H](O[C@H]5C[C@@H](O)[C@H](O)[C@@H](C)O5)[C@@H](O)[C@@H](C)O4)c(C)c(O)c3c(O)c2C(=O)[C@H]1O[C@H]1C[C@@H](O[C@H]2C[C@@H](O[C@H]3C[C@](C)(O)[C@H](O)[C@@H](C)O3)[C@H](O)[C@@H](C)O2)[C@H](O)[C@@H](C)O1 [Plicamycin] | 0 | 1.7 |  | > 10 | > 10 | 21.8 | 0.119
34 | COc1ccc(CCc2nc3cc(-c4c(C)noc4C)ccc3n2C[C@H](C)N2CCOCC2)cc1Cl [SGC-CBP30] | 0.2 | 0.8 |  | > 25 | > 25 | 2.2 | 9.91
35 | C[C@@H]1CN(CC(=O)Nc2ccc3c(c2)Cc2cccc(-c4cc(=O)cc(N5CCOCC5)o4)c2S3)C[C@H](C)O1 | 0 | 0 |  | > 25 | > 25 | 0 | > 25
36 | CC(=O)Nc1cccc(-n2c(=O)n(C3CC3)c(=O)c3c(Nc4ccc(I)cc4F)n(C)c(=O)c(C)c32)c1 [Trametinib] | 0 | 0 |  | > 0.25 | > 0.25 | 3.1 | 0.037
37 | CC[C@H](NC(=O)[C@H](C)NC)C(=O)N1C[C@@H](O)C[C@H]1Cc1c(-c2[nH]c3cc(F)ccc3c2C[C@@H]2C[C@H](O)CN2C(=O)[C@H](CC)NC(=O)[C@H](C)NC)[nH]c2cc(F)ccc12 [Birinapant] | 0 | 0 |  | > 1 | > 1 | 0.1 | > 1
38 | CC1=NN(c2ccc(C(=O)O)cc2)C(=O)C1=Cc1ccc(-c2cc(C)c(C)cc2[N+](=O)[O-])o1 [C646] | 0 | 0 |  | > 25 | > 25 | 2.8 | 5.03
39 | CC1(C)CCC(c2ccc(Cl)cc2)=C(CN2CCN(c3ccc(C(=O)NS(=O)(=O)c4ccc(N[C@H](CCN5CCOCC5)CSc5ccccc5)c(S(=O)(=O)C(F)(F)F)c4)cc3)CC2)C1 [Navitoclax] | 2.1 | 4 |  | 1.89 | 1.55 | 2.1 | 3.95
40 | Clc1ccccc1C(c1ccccc1)(c1ccccc1)n1cccn1 [TRAM-34] |  |  | 6.4 |  |  | 2.2 | > 1
41 | COc1cc(OC2CCN(C)CC2)ccc1Nc1ncc2c(n1)n(C1CCCC1)c(=O)n2C [AZ 3146] | 1.6 | 2.5 |  | > 10 | 1.58 | 8 | 1.25
42 | C[C@H]1C[C@@H](n2c(Nc3ccc(OC(F)(F)F)cc3)nc3cc(CCC(=O)O)ccc32)CC(C)(C)C1 | 0 | 0 |  | > 10 | > 10 | 0.3 | > 10

From the supplement of paper PMC7600603
